Results published in the NIST ThermoML archive (doi:10.1016/j.jct.2013.01.006).

Conditions: Liquid, Vibrating tube method

FCC(F)(F)F [1,1,1,2-tetrafluoroethane]
Conditions | mass density [kg/m3]
283.52 K, 1010 kPa | 1262.83
283.53 K, 5000 kPa | 1279.7
283.54 K, 10000 kPa | 1298.2
283.54 K, 20000 kPa | 1329.16
283.54 K, 39990 kPa | 1376.78
283.54 K, 60010 kPa | 1413.66
283.54 K, 80020 kPa | 1444.29
303.26 K, 1000 kPa | 1188.74
303.27 K, 5000 kPa | 1212.6
303.28 K, 10000 kPa | 1237.15
303.29 K, 19980 kPa | 1275.91
303.29 K, 40010 kPa | 1332.33
303.3 K, 60000 kPa | 1374.15
303.3 K, 79980 kPa | 1408.2
323.07 K, 1280 kPa | 1102.44
323.08 K, 5000 kPa | 1136.68
323.08 K, 10000 kPa | 1170.98
323.09 K, 20000 kPa | 1220.67
323.11 K, 60000 kPa | 1335.02
323.11 K, 80000 kPa | 1372.84
323.12 K, 40000 kPa | 1287.6
343.02 K, 10000 kPa | 1097
343.02 K, 20000 kPa | 1162.16
343.02 K, 39990 kPa | 1241.93
343.02 K, 60010 kPa | 1295.73
343.03 K, 4990 kPa | 1045.24
343.03 K, 80010 kPa | 1337.58
343.05 K, 2090 kPa | 997.14
362.95 K, 5000 kPa | 921.91
362.95 K, 10000 kPa | 1012.79
362.96 K, 20000 kPa | 1101.23
362.97 K, 40000 kPa | 1196.59
362.98 K, 60000 kPa | 1257.2
362.99 K, 80000 kPa | 1302.95

C=C(F)C(F)(F)F [2,3,3,3-tetrafluoro-1-propene]
Conditions | mass density [kg/m3]
283.5 K, 3000 kPa | 1155.63
283.5 K, 5000 kPa | 1165.27
283.51 K, 1000 kPa | 1145.11
283.51 K, 10000 kPa | 1186.43
283.51 K, 15000 kPa | 1204.63
283.52 K, 20000 kPa | 1220.62
283.52 K, 25000 kPa | 1235
283.53 K, 30000 kPa | 1248.1
283.53 K, 40000 kPa | 1271.31
283.53 K, 50000 kPa | 1291.52
283.53 K, 60000 kPa | 1309.52
283.53 K, 69990 kPa | 1325.92
283.54 K, 79990 kPa | 1340.69
283.54 K, 89990 kPa | 1354.31
283.54 K, 99990 kPa | 1367.01
293.42 K, 100000 kPa | 1352.4
293.43 K, 1000 kPa | 1111.44
293.43 K, 3000 kPa | 1123.79
293.43 K, 5000 kPa | 1134.97
293.43 K, 80000 kPa | 1324.88
293.43 K, 89990 kPa | 1339.25
293.44 K, 10000 kPa | 1159.05
293.44 K, 15000 kPa | 1179.37
293.44 K, 20000 kPa | 1196.95
293.44 K, 70000 kPa | 1309.56
293.45 K, 25000 kPa | 1212.64
293.45 K, 30000 kPa | 1226.8
293.45 K, 40000 kPa | 1251.77
293.45 K, 50000 kPa | 1273.28
293.45 K, 60000 kPa | 1292.28
303.3 K, 1000 kPa | 1077.2
303.3 K, 3000 kPa | 1092.22
303.3 K, 5000 kPa | 1105.38
303.3 K, 10000 kPa | 1133.08
303.3 K, 20000 kPa | 1175.21
303.3 K, 25000 kPa | 1192.3
303.3 K, 30000 kPa | 1207.61
303.3 K, 40000 kPa | 1234.24
303.3 K, 50000 kPa | 1257.07
303.3 K, 60000 kPa | 1277.12
303.31 K, 15000 kPa | 1155.81
303.31 K, 69990 kPa | 1295.36
303.31 K, 80000 kPa | 1311.51
303.31 K, 90000 kPa | 1326.38
303.31 K, 99990 kPa | 1340.07
313.3 K, 3000 kPa | 1054.12
313.3 K, 5000 kPa | 1070.05
313.3 K, 10000 kPa | 1102.25
313.3 K, 15000 kPa | 1127.81
313.31 K, 20000 kPa | 1149.23
313.31 K, 25000 kPa | 1167.84
313.31 K, 30000 kPa | 1184.38
313.31 K, 79990 kPa | 1294.04
313.31 K, 100000 kPa | 1323.74
313.32 K, 40000 kPa | 1212.87
313.32 K, 50000 kPa | 1237.08
313.32 K, 60000 kPa | 1258.24
313.32 K, 70000 kPa | 1277.17
313.32 K, 90000 kPa | 1309.49
323.16 K, 30000 kPa | 1163.21
323.16 K, 80000 kPa | 1279.1
323.16 K, 90000 kPa | 1295.16
323.16 K, 100000 kPa | 1309.92
323.17 K, 3000 kPa | 1014.55
323.17 K, 5000 kPa | 1034.38
323.17 K, 10000 kPa | 1072.33
323.17 K, 15000 kPa | 1101.29
323.17 K, 20000 kPa | 1125.01
323.17 K, 25000 kPa | 1145.33
323.17 K, 40000 kPa | 1193.69
323.17 K, 50000 kPa | 1219.3
323.17 K, 60000 kPa | 1241.51
323.17 K, 69990 kPa | 1261.48
333.08 K, 3000 kPa | 970.09
333.08 K, 5000 kPa | 995.64
333.08 K, 10000 kPa | 1041.18
333.08 K, 15000 kPa | 1074.07
333.08 K, 20000 kPa | 1100.37
333.08 K, 25000 kPa | 1122.55
333.08 K, 30000 kPa | 1141.81
333.08 K, 40000 kPa | 1174.38
333.08 K, 50000 kPa | 1201.52
333.08 K, 60000 kPa | 1224.88
333.08 K, 70000 kPa | 1245.82
333.08 K, 80000 kPa | 1264.16
333.08 K, 90000 kPa | 1280.84
333.08 K, 99990 kPa | 1296.14
343.03 K, 25000 kPa | 1099.43
343.04 K, 30000 kPa | 1120.26
343.04 K, 40000 kPa | 1155.06
343.05 K, 50000 kPa | 1183.7
343.05 K, 60000 kPa | 1208.19
343.05 K, 70000 kPa | 1230.04
343.05 K, 80000 kPa | 1249.14
343.05 K, 90000 kPa | 1266.4
343.06 K, 15000 kPa | 1045.88
343.06 K, 20000 kPa | 1075.15
343.06 K, 100000 kPa | 1282.22
343.07 K, 3000 kPa | 917.18
343.07 K, 5000 kPa | 952.33
343.07 K, 10000 kPa | 1008.02
353.02 K, 3000 kPa | 849.05
353.02 K, 99990 kPa | 1268.7
353.03 K, 5000 kPa | 902.77
353.03 K, 10000 kPa | 973.22
353.03 K, 15000 kPa | 1016.73
353.03 K, 20000 kPa | 1049.45
353.03 K, 25000 kPa | 1075.98
353.03 K, 30000 kPa | 1098.53
353.03 K, 40000 kPa | 1135.71
353.03 K, 50000 kPa | 1166.05
353.03 K, 60000 kPa | 1191.81
353.03 K, 69990 kPa | 1214.55
353.03 K, 79990 kPa | 1234.41
353.03 K, 89990 kPa | 1252.33
362.96 K, 5000 kPa | 843.74
362.96 K, 10000 kPa | 936.17
362.96 K, 15000 kPa | 986.89
362.96 K, 20000 kPa | 1023.49
362.96 K, 25000 kPa | 1052.55
362.96 K, 30000 kPa | 1076.97
362.96 K, 40000 kPa | 1116.69
362.96 K, 50000 kPa | 1148.71
362.96 K, 60000 kPa | 1175.67
362.96 K, 70000 kPa | 1199.47
362.96 K, 80000 kPa | 1220.08
362.96 K, 89990 kPa | 1238.55
362.96 K, 100000 kPa | 1255.48
